Source: US20240183865A1, “METHOD FOR MEASURING AGGREGATING PROTEINS, METHOD FOR VISUALIZING AGGREGATION, AND KIT USED THEREFOR” (KANEKA CORPORATION, priority 2021, published 2024)

Molecular target: T1, Aβ42 (Homo sapiens, UniProt P05067)
T1 construct: the amyloid β42 protein (Aβ42)
Experiment: MSHTS quantification of aggregated Aβ with QD-Aβ40 in filtrate collected with Blocking 12
Assay type: biochemical
Details: Aβ42 and QD-Aβ40, 37° C. for 24 hours, SD value, read-out: RA concentration at which Aβ accounting for approximately 50% of the whole would not be aggregated
Experimental: Accordingly, whether or not it is possible to visualize aggregation of the amyloid β protein in such filtrate was examined. The quantum-dot-modified amyloid 40 protein (QD-Aβ40) was dissolved in the filtrate collected in Example 3, the solution was added to and mixed with the 1 mM Aβ42 solution, and the filtrate collected in Example 3 comprising 50 μM Aβ42 and 50 nM QD-Aβ40 was prepared. The 150 mM rosmarinic acid (RA) solution was diluted with the filtrate collected in Example 3 to five levels of concentration (3,000 μM, 600 μM, 120 μM, 24 μM, and 4.8 μM). Aβ42 and QD-A$40 were diluted with the filtrate collected in Example 3 to prepare a mixture of 50 μM Aβ42 and 50 nM QD-Aβ40. […] As a result, none of the solutions were sufficient in terms of sensitivity of SD values to perform quantitative analysis of aggregated Aβ (FIG. 4).
With the use of Blocking 12, accordingly, a 50 μM Aβ42 solution was prepared from the filtrate collected in the same manner as in Example 2, and QD-Aβ40 was diluted in the collected filtrate to adjust the concentration of QD-Aβ40 to 50 nM. […] These reaction solutions were incubated at 37° C. for 24 hours, aggregated Aβ was observed under a fluorescent microscope, and aggregated AD was quantified. […] It was found necessary that the sensitivity of the SD value be 60% or higher relative to that of PBS designated as 100% for quantification of aggregated AD.

T1 sequence (P05067 672-713 limits assumed): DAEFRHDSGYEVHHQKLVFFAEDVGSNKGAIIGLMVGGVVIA

## O=C(/C=C/c1ccc(O)c(O)c1)O[C@H](Cc1ccc(O)c(O)c1)C(=O)O [RA, rosmarinic acid]
  EC50: ≤ 46 µM
